Data as given in ChEMBL document CHEMBL3580555, “Design, Synthesis, and Biological Evaluation of Novel Imidazo[1,2-a]pyridine Derivatives as Potent c-Met Inhibitors” (ACS Med Chem Lett, 2015).
Active and inactive are the calls of the source. No cut-off for these calls is given here.

What was measured:
[1] = Antiproliferative activity against human EBC1 cells after 72 hrs; settings: EBC-1, 72 h
[2] = Antiproliferative activity against human SNU5 cells after 72 hrs; assay type: functional, cell-based; settings: SNU-5, 72 h
[3] = Antiproliferative activity against human MKN45 cells after 72 hrs; assay type: functional, cell-based; settings: MKN-45, 72 h
BaF3 = assay: Antiproliferative activity against mouse BAF3/TPR-Met cells after 72 hrs; assay type: functional, cell-based; settings: BaF3, 72 h
Liver = assay: Drug formation in CD1 mouse liver microsomes treated with 2-Fluoro-4-(8-fluoro-3-(quinolin-6-ylmethyl)imidazo[1,2-a]pyridin-6-yl)-N-methylbenzamide after 60 mins by UPLC/Q-TOF MS/MS analysis; assay type: ADME; settings: 1 h
[4] = Drug formation in monkey liver microsomes treated with 2-Fluoro-4-(8-fluoro-3-(quinolin-6-ylmethyl)imidazo[1,2-a]pyridin-6-yl)-N-methylbenzamide after 60 mins by UPLC/Q-TOF MS/MS analysis; assay type: ADME, Macaca mulatta; settings: rhesus monkey, 1 h
Liver microsome [5] = assay: Drug formation in beagle dog liver microsomes treated with 2-Fluoro-4-(8-fluoro-3-(quinolin-6-ylmethyl)imidazo[1,2-a]pyridin-6-yl)-N-methylbenzamide after 60 mins by UPLC/Q-TOF MS/MS analysis; assay type: ADME, Canis lupus familiaris; settings: 1 h
Liver microsome [6] = assay: Drug formation in human liver microsomes treated with 2-Fluoro-4-(8-fluoro-3-(quinolin-6-ylmethyl)imidazo[1,2-a]pyridin-6-yl)-N-methylbenzamide after 60 mins by UPLC/Q-TOF MS/MS analysis; assay type: ADME; settings: 1 h
[7] = Antiproliferative activity against human SNU16 cells after 72 hrs; assay type: functional, cell-based; settings: SNU-16, 72 h
HT-29 = assay: Antiproliferative activity against human HT-29 cells after 72 hrs; assay type: functional, cell-based; settings: HT-29, 72 h
[8] = Antiproliferative activity against human MKN74 cells after 72 hrs; assay type: functional, cell-based; settings: MKN-74, 72 h
Mus musculus = assay: Toxicity in human EBC1 cells xenografted in mouse assessed as weight losses treated at 50 to 100 mg/kg, po for 3 weeks; assay type: organism-based; settings: in vivo, 504 h
Liver microsome [9] = assay: Drug metabolism in beagle dog liver microsomes assessed as 2-Fluoro-4-(8-fluoro-3-(hydroxy(quinolin-6-yl)methyl)imidazo[1,2-a]pyridin-6-yl)-N-methylbenzamide metabolite formation after 60 mins by UPLC/Q-TOF MS/MS analysis; assay type: ADME, Canis lupus familiaris; settings: 1 h
EBC-1 [10] = assay: Antitumor activity against human EBC1 cells xenografted in po dosed mouse assessed as tumor growth inhibition treated for 3 weeks; assay type: functional, organism-based
[11] = Antiproliferative activity against human SGC7901 cells after 72 hrs; assay type: functional, cell-based; settings: SGC-7901, 72 h
[12] = Antiproliferative activity against human Calu3 cells after 72 hrs; assay type: functional, cell-based; settings: Calu-3, 72 h
A549 = assay: Antiproliferative activity against human A549 cells after 72 hrs; assay type: functional, cell-based; settings: A549, 72 h
MDCK = assay: Reduction in HGF-induced cell scattering of MDCK cells after 24 hrs by microscopy; assay type: functional, cell-based; settings: Canis lupus familiaris
NCI-H292 = assay: Antiproliferative activity against human NCI-H292 cells after 72 hrs; assay type: functional, cell-based; settings: NCI-H292, 72 h
[13] = Antiproliferative activity against human SPCA4 cells after 72 hrs; assay type: functional, cell-based; settings: SPC-A4, 72 h
NCI-H1975 = assay: Antiproliferative activity against human NCI-H1975 cells after 72 hrs; assay type: functional, cell-based; settings: NCI-H1975, 72 h
SNU1 = assay: Antiproliferative activity against human SNU1 cells after 72 hrs; assay type: functional, cell-based; settings: SNU1, 72 h
[14] = target: Tyrosine-protein kinase receptor UFO (Homo sapiens, UniProt P30530); assay: Inhibition of Axl (unknown origin) using polu (Glu,Tyr)4:1 substrate after 30 mins incubation by multi-well spectrophotometry
NCI-H520 = assay: Antiproliferative activity against human NCI-H520 cells after 72 hrs; assay type: functional, cell-based; settings: NCI-H520, 72 h
[15] = Antiproliferative activity against human BGC823 cells after 72 hrs; assay type: functional, cell-based; settings: BGC-823, 72 h
NCI-H1299 = assay: Antiproliferative activity against human NCI-H1299 cells after 72 hrs; assay type: functional, cell-based; settings: NCI-H1299, 72 h
Liver microsome [16] = assay: Drug metabolism in human liver microsomes assessed as 2-Fluoro-4-(8-fluoro-3-(hydroxy(quinolin-6-yl)methyl)imidazo[1,2-a]pyridin-6-yl)-N-methylbenzamide metabolite formation after 60 mins by UPLC/Q-TOF MS/MS analysis; assay type: ADME; settings: 1 h
[17] = Half life in Sprague-Dawley rat at 10 mg/kg, iv; assay type: ADME, organism-based; settings: in vivo
[18] = Antiproliferative activity against human MKN1 cells after 72 hrs; assay type: functional, cell-based; settings: MKN-1, 72 h
NCI-H358 = assay: Antiproliferative activity against human NCI-H358 cells after 72 hrs; assay type: functional, cell-based; settings: NCI-H358, 72 h
[19] = Drug metabolism in monkey liver microsomes assessed as 2-Fluoro-4-(8-fluoro-3-(hydroxy(quinolin-6-yl)methyl)imidazo[1,2-a]pyridin-6-yl)-N-methylbenzamide metabolite formation after 60 mins by UPLC/Q-TOF MS/MS analysis; assay type: ADME, Macaca mulatta; settings: rhesus monkey, 1 h
NCI-H1650 = assay: Antiproliferative activity against human NCI-H1650 cells after 72 hrs; assay type: functional, cell-based; settings: NCI-H1650, 72 h
MGC-803 = assay: Antiproliferative activity against human MGC803 cells after 72 hrs; assay type: functional, cell-based; settings: MGC-803, 72 h
EBC-1 [20] = assay: Induction of cell cycle arrest in human EBC1 cells assessed as cell accumulation at G1/S phase at 1 uM after 24 hrs by FACS analysis; assay type: functional, cell-based
[21] = Antitumor activity against human EBC1 cells xenografted in mouse assessed as tumor growth inhibition treated at 50 mg/kg, po for 3 weeks; assay type: functional; settings: EBC-1, po, 504 h, read-out: INH
[22] = Antitumor activity against human EBC1 cells xenografted in mouse assessed as tumor growth inhibition treated at 100 mg/kg, po for 3 weeks; assay type: functional; settings: EBC-1, po, 504 h
NCI-H441 [23] = assay: Inhibition of HGF-induced human NCI-H441 cell invasion at 500 nM after 24 hrs by spectrophotometry; assay type: functional, cell-based
Liver microsome [24] = assay: Drug formation in Sprague-Dawley rat liver microsomes treated with 2-Fluoro-4-(8-fluoro-3-(quinolin-6-ylmethyl)imidazo[1,2-a]pyridin-6-yl)-N-methylbenzamide after 60 mins by UPLC/Q-TOF MS/MS analysis; assay type: ADME; settings: 1 h
[25] = Oral bioavailability in Sprague-Dawley rat at 20 mg/kg; assay type: ADME, organism-based; settings: in vivo
NCI-H661 = assay: Antiproliferative activity against human NCI-H661 cells after 72 hrs; assay type: functional, cell-based; settings: NCI-H661, 72 h
[26] = target: Tyrosine-protein kinase Mer (Homo sapiens, UniProt Q12866); assay: Inhibition of Mer (unknown origin) using polu (Glu,Tyr)4:1 substrate after 30 mins incubation by multi-well spectrophotometry
NCI-H441 [27] = assay: Inhibition of HGF-induced human NCI-H441 cell migration at 500 nM after 24 hrs by spectrophotometry; assay type: functional, cell-based
NCI-H226 = assay: Antiproliferative activity against human NCI-H226 cells after 72 hrs; assay type: functional, cell-based; settings: NCI-H226, 72 h
[28] = target: Voltage-gated inwardly rectifying potassium channel KCNH2 (Homo sapiens, UniProt Q12809); assay: Inhibition of human ERG channel
[29] = Drug metabolism in CD1 mouse liver microsomes assessed as 2-Fluoro-4-(8-fluoro-3-(hydroxy(quinolin-6-yl)methyl)imidazo[1,2-a]pyridin-6-yl)-N-methylbenzamide metabolite formation after 60 mins by UPLC/Q-TOF MS/MS analysis; assay type: ADME; settings: 1 h
Liver microsome [30] = assay: Drug metabolism in Sprague-Dawley rat liver microsomes assessed as 2-Fluoro-4-(8-fluoro-3-(hydroxy(quinolin-6-yl)methyl)imidazo[1,2-a]pyridin-6-yl)-N-methylbenzamide metabolite formation after 60 mins by UPLC/Q-TOF MS/MS analysis; assay type: ADME; settings: 1 h
[31] = target: Tyrosine-protein kinase receptor TYRO3 (Homo sapiens, UniProt Q06418); assay: Inhibition of Tyro3 (unknown origin) using polu (Glu,Tyr)4:1 substrate after 30 mins incubation by multi-well spectrophotometry
[32] = Antiproliferative activity against human SPCA1 cells after 72 hrs; assay type: functional, cell-based; settings: SPCA1, 72 h
NCI-H23 = assay: Antiproliferative activity against human NCI-H23 cells after 72 hrs; assay type: functional, cell-based; settings: NCI-H23, 72 h
EBC-1 [33] = assay: Induction of cell cycle arrest in human EBC1 cells assessed as cell accumulation at G1 phase at 1 uM after 24 hrs by FACS analysis (reference value: 52.95%); assay type: functional
AGS = assay: Antiproliferative activity against human AGS cells after 72 hrs; assay type: functional, cell-based
NCI-H596 = assay: Antiproliferative activity against human NCI-H596 cells after 72 hrs; assay type: functional, cell-based; settings: NCI-H596, 72 h
[34] = target: Hepatocyte growth factor receptor (Homo sapiens) (UniProt P08581); assay: Inhibition of C-Met (unknown origin) using polu (Glu,Tyr)4:1 substrate at 100 uM after 30 mins incubation by multi-well spectrophotometry
[35] = target: Hepatocyte growth factor receptor (Homo sapiens) (UniProt P08581); assay: Inhibition of C-Met (unknown origin) using polu (Glu,Tyr)4:1 substrate at 1 uM after 30 mins incubation by multi-well spectrophotometry

Hepatocyte growth factor receptor (Homo sapiens), sequence (P08581 whole entry): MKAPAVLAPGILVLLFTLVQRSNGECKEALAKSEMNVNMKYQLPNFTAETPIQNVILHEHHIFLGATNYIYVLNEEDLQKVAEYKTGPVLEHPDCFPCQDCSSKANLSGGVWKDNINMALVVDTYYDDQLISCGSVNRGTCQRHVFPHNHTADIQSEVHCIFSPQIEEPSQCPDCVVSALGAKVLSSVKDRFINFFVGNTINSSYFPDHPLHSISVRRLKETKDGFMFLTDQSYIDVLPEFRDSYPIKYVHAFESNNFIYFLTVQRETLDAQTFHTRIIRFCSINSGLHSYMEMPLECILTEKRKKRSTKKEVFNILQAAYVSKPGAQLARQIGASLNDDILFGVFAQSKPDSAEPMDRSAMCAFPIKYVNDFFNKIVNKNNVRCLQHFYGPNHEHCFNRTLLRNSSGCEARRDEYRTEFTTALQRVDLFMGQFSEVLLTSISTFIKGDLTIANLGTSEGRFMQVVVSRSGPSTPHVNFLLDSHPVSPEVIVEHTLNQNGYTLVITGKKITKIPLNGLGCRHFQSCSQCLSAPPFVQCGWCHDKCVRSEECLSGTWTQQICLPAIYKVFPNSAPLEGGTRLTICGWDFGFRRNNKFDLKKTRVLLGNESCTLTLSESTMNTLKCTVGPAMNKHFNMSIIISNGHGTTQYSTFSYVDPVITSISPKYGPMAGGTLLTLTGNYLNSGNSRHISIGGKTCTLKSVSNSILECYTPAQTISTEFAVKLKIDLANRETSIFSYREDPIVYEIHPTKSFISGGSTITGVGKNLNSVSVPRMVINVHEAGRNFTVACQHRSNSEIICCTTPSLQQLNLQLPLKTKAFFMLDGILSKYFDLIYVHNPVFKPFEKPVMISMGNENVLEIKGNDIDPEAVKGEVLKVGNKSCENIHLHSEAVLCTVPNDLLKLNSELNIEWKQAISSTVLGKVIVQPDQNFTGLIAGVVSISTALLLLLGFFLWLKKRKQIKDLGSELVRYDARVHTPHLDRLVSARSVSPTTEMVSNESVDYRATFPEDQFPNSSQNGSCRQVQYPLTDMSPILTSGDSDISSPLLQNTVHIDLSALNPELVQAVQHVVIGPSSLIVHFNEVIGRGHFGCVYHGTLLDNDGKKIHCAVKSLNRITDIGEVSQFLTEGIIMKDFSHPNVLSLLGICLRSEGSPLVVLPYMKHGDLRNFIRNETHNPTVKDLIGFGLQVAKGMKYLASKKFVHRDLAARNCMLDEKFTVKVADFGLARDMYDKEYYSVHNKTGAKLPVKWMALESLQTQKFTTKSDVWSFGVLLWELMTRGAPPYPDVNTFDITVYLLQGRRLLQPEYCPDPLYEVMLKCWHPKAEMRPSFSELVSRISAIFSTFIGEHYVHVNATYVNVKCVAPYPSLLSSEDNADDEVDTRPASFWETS
Voltage-gated inwardly rectifying potassium channel KCNH2, sequence (Q12809 whole entry): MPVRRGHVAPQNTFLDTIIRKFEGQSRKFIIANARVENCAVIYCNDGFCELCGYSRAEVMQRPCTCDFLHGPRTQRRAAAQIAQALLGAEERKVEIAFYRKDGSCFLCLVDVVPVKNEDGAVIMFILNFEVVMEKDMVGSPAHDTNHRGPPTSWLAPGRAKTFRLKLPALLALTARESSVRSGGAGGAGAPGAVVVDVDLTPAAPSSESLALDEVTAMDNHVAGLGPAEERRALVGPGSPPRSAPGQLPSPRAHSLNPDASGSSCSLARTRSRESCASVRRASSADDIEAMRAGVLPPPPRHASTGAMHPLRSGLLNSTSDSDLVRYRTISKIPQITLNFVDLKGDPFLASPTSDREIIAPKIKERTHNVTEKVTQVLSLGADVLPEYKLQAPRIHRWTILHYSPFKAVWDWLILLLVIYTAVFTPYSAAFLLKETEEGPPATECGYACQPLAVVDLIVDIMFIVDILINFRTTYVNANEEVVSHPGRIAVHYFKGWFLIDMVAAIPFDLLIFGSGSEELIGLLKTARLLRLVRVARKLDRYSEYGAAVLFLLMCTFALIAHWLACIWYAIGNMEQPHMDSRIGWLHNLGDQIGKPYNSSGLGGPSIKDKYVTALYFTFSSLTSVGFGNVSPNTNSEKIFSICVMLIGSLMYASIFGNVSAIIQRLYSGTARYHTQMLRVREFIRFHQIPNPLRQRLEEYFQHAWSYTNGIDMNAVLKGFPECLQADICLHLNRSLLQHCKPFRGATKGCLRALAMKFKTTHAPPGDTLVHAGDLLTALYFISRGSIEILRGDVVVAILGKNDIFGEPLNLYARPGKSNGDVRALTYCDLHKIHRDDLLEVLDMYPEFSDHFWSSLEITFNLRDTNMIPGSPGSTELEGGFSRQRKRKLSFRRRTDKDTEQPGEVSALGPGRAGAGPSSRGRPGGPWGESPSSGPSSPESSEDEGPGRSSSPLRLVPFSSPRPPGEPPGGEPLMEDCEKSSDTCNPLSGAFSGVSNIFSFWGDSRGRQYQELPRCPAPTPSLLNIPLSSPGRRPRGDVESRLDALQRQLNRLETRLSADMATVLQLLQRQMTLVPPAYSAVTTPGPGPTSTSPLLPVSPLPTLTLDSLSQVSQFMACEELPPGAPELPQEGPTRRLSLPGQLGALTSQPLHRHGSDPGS
Tyrosine-protein kinase receptor TYRO3, sequence (Q06418 whole entry): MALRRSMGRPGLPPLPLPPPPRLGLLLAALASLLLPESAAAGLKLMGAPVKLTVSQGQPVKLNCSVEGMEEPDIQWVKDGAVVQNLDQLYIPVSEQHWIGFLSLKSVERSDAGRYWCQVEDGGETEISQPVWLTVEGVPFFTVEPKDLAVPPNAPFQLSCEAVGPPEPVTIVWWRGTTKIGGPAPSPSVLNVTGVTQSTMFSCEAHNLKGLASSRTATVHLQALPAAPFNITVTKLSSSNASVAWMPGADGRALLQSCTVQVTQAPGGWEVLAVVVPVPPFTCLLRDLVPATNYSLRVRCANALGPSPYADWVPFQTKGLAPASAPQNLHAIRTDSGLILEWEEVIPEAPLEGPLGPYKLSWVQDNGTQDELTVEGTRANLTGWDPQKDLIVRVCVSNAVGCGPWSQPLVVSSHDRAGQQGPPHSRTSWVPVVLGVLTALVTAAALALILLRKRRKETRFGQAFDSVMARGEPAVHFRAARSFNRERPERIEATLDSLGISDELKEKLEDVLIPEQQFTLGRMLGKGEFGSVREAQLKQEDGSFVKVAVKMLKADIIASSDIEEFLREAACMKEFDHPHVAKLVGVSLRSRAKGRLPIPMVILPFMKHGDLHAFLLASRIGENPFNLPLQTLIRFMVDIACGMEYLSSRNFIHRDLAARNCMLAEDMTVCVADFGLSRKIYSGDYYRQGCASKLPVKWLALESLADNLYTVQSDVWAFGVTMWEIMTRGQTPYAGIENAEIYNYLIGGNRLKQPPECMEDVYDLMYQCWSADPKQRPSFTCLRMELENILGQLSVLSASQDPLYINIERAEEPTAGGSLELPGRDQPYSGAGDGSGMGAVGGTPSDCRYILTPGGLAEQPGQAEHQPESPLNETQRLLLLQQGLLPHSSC
Tyrosine-protein kinase receptor UFO, sequence (P30530 whole entry): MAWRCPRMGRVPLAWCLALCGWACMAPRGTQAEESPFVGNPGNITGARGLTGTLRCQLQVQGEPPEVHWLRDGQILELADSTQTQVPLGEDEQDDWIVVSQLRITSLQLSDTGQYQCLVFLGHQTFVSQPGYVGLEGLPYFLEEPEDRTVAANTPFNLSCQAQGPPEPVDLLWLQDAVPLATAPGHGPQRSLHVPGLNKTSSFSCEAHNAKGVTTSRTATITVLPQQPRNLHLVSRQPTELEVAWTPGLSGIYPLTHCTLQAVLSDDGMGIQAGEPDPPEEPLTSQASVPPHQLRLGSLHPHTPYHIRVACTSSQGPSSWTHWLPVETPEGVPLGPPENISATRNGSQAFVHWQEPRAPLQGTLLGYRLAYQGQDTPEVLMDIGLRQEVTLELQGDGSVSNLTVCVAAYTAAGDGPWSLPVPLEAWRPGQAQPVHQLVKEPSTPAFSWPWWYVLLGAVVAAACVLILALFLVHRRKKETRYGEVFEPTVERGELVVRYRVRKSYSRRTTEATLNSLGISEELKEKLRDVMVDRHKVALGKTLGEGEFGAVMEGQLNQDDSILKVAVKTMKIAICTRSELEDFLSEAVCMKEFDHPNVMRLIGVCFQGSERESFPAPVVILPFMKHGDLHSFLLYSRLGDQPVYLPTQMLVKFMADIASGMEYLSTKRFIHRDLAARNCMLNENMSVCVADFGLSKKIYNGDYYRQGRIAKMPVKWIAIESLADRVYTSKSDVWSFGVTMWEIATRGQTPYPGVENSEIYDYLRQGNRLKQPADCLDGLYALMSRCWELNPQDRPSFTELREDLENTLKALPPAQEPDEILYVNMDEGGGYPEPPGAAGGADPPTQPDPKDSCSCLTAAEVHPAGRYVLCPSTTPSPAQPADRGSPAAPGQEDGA

## Cn1cc(-c2ccc3nnc(C(F)(F)c4ccc5ncccc5c4)n3n2)cn1 [JNJ-38877605]
[1]
  IC50: 9.5 nM
[2]
  IC50: 15.8 nM
[3]
  IC50: 10.9 nM
BaF3
  IC50: 17.6 nM

## O=C(NCC1CCCCN1)c1ccc(-c2cc(F)c3ncc(Cc4ccc5ncccc5c4)n3c2)cc1F (centres undefined)
[1]
  IC50: 277 nM

## CNC(=O)c1ccc(-c2cc(F)c3ncc(C(O)c4ccc5ncccc5c4)n3c2)cc1F (centres undefined)
[1]
  IC50: 3020 nM
Liver
  Drug metabolism: metabolite_detected
[4]
  Drug metabolism: metabolite_detected
Liver microsome [5]
  Drug metabolism: metabolite_detected
Liver microsome [6]
  Drug metabolism: metabolite_detected

## CNC(=O)c1ccc(-c2cc(F)c3ncc(Cc4ccc5ncccc5c4)n3c2)cc1F
[1]
  IC50: 45 nM
[7]
  IC50: > 50000 nM
HT-29
  IC50: > 50000 nM
[8]
  IC50: > 50000 nM
Mus musculus
  Activity: Non-toxic
Liver microsome [9]
  Drug metabolism: metabolite_detected
EBC-1 [10]
  TGI: Dose-dependent effect
[11]
  IC50: > 50000 nM
[2]
  IC50: 70.2 nM
[12]
  IC50: > 50000 nM
A549
  IC50: > 50000 nM
MDCK
  inhibition: Dose-dependent effect
NCI-H292
  IC50: > 50000 nM
[13]
  IC50: > 50000 nM
NCI-H1975
  IC50: > 50000 nM
SNU1
  IC50: > 50000 nM
[14]
  IC50: > 10000 nM
NCI-H520
  IC50: > 50000 nM
[15]
  IC50: > 50000 nM
NCI-H1299
  IC50: > 50000 nM
Liver microsome [16]
  Drug metabolism: metabolite_detected
[17]
  half-life: 1.17 h
[18]
  IC50: > 50000 nM
NCI-H358
  IC50: > 50000 nM
[19]
  Drug metabolism: metabolite_detected
NCI-H1650
  IC50: > 50000 nM
MGC-803
  IC50: > 50000 nM
EBC-1 [20]
  Activity: Active
[21]
  inhibition in vivo at 50 mg/kg: 62.9%
[22]
  inhibition in vivo at 100 mg/kg: 75%
NCI-H441 [23]
  inhibition: Active
[3]
  IC50: 90.9 nM
Liver microsome [24]
  Drug metabolism: metabolite_notdetected
[25]
  bioavailability: 29.4%
NCI-H661
  IC50: > 50000 nM
[26]
  IC50: > 10000 nM
NCI-H441 [27]
  inhibition: Active
BaF3
  IC50: 203 nM
NCI-H226
  IC50: > 50000 nM
[28]
  IC50: 93600 nM
[29]
  Drug metabolism: metabolite_detected
Liver microsome [30]
  Drug metabolism: metabolite_notdetected
[31]
  IC50: > 10000 nM
[32]
  IC50: > 50000 nM
NCI-H23
  IC50: > 50000 nM
EBC-1 [33]
  Activity: 81.84%
AGS
  IC50: > 50000 nM
NCI-H596
  IC50: > 50000 nM

## Cn1cc(-c2cn3c(Cc4ccc5ncccc5c4)cnc3cc2C#N)cn1
[34]
  inhibition: 33.3%

## O=C(NCCN1CCOCC1)c1ccc(-c2cc(F)c3ncc(Cc4ccc5ncccc5c4)n3c2)cc1F
[1]
  IC50: 52 nM

## N#Cc1ccc(-c2cc(F)c3ncc(Cc4ccc5ncccc5c4)n3c2)cn1
[1]
  IC50: 188 nM

## CNC(=O)c1ccc(-c2cc(F)c3ncc(Cc4ccc5ncccc5c4)n3c2)cc1OC
[1]
  IC50: 59.6 nM

## CCO/N=C(\C)c1cc(F)c2ncc(Cc3ccc4ncccc4c3)n2c1
[1]
  IC50: 1480 nM

## O=C(NC1CCCNC1)c1ccc(-c2cc(F)c3ncc(Cc4ccc5ncccc5c4)n3c2)cc1F (centres undefined)
[1]
  IC50: 138 nM

## Cn1cc(-c2cn3c(Cc4ccc5ncccc5c4)cnc3cc2C(F)(F)F)cn1
[35]
  inhibition: 5.9%

## Fc1cc(F)cc(-c2cc(F)c3ncc(Cc4ccc5ncccc5c4)n3c2)c1
[1]
  IC50: 790 nM

## C[C@@H](Oc1cc(-c2cnn(C3CCNCC3)c2)cnc1N)c1c(Cl)ccc(F)c1Cl [CRIZOTINIB]
[1]
  IC50: 21.8 nM
[2]
  IC50: 20.4 nM
[3]
  IC50: 38.1 nM
BaF3
  IC50: 127 nM

## N#Cc1ccc(-c2cc(F)c3ncc(Cc4ccc5ncccc5c4)n3c2)cc1F
[1]
  IC50: 145 nM

## O=C(c1ccc(-c2cc(F)c3ncc(Cc4ccc5ncccc5c4)n3c2)cc1F)N1CCC2(COC2)C1
[1]
  IC50: 406 nM

## Fc1cc(-c2cnn(C3CCNCC3)c2)cn2c(Cc3ccc4ncccc4c3)cnc12
[1]
  IC50: 1460 nM

## Cn1cc(-c2cc(C(F)(F)F)c3ncc(Cc4ccc5ncccc5c4)n3c2)cn1
[35]
  inhibition: 9.6%
